Like-named read-outs stand apart in the source and are kept apart here. Where only a bound is given, the exact number is not on record here.

As usually defined, the IC50 is the concentration that inhibits the measured activity by half.

The target of one assay is T1, H-2K^b (Mus musculus, UniProt P01901).
T1 sequence (P01901 22-369): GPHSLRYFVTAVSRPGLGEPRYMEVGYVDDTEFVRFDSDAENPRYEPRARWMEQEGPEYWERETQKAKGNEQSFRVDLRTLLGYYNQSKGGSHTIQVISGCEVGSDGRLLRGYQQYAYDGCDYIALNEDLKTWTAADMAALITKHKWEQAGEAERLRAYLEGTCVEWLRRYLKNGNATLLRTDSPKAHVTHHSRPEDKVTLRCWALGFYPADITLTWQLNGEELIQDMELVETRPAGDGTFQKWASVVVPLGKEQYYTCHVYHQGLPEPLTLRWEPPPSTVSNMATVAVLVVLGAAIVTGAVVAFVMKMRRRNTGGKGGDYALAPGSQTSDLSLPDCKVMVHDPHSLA
T1 sequence (P01887 21-119 partner): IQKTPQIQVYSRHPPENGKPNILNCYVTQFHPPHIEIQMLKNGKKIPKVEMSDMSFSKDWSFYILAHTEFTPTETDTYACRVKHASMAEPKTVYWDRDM
The following applies: MHC allele H-2K^b, cited from earlier work.

In another assay the target is T2, H-2D^b (Mus musculus, UniProt P01899).
T2 sequence (P01899 25-362): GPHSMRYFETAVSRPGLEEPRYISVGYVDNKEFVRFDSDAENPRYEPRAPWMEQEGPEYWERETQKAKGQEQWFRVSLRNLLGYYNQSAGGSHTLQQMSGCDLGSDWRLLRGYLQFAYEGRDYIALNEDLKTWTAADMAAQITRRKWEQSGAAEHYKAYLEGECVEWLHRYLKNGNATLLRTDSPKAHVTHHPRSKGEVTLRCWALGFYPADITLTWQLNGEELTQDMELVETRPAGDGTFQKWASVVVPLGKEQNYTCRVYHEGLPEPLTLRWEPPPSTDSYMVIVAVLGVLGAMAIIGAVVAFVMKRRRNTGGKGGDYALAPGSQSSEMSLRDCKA
T2 sequence (P01887 21-119 partner): T1 sequence (P01887 21-119 partner)
The following applies: MHC allele H-2D^b, cited from earlier work.

For assay [1], the target named is PD-L1 protein (Abcam, ab130039) (UniProt Q9EP73). Kind of assay: competitive ELISA: PD-L1-coated plate, displacement of mouse PD-1-biotin. A general note: An ELISA detects its analyte on a solid surface through an enzyme-linked reagent.
PD-L1 protein (Abcam, ab130039) (UniProt Q9EP73), sequence (Q9EP73 19-238 limits assumed): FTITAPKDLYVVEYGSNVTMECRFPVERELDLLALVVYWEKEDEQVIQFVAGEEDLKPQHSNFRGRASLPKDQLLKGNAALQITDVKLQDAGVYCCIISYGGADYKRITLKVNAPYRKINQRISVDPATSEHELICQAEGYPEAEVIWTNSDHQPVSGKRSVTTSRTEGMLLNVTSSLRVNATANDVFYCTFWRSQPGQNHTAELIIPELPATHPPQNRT
The next assay has as its target T3, PD-1/PD-L1 interaction (Homo sapiens, UniProt Q9NZQ7).
T3 construct: purchased BPS Bioscience
The class given is binding. The following applies: purified ihPDL1 at the tested concentrations.

Assay [2] has as its target PD-L1 (Homo sapiens, UniProt Q9NZQ7). The assay can be described thus: Surface plasmon resonance (SPR)-binding assay. The following applies: immobilized PD-L1-His tag protein. The protocol:
Surface plasmon resonance (SPR)-binding assays: The assays were carried out at 25° C. using a Biacore T100 (USC NanoBiophysics Center). CMS sensor chips were activated by a 7 min injection of a 1:1 mixture of N-hydroxysuccinimide and 1-ethyl-3-(3-dimethylaminopropyl) carbodiimide hydrochloride at a flow rate of 10 μL/min. The PD-L1-His tag protein was prepared at a concentration of 10 μg/mL in 10 mM acetate buffer, pH 4.0, and immobilized to the sensor chips by amine linkage, with the typical immobilization levels being 100 response units. For blocking sensor chips, 70 μL of 1M ethanolamine-HCl buffer, pH 8.5, was injected and the chips were further washed with 10 μL of 10 mM glycine-HCl buffer, pH 1.5. For analyzing the binding and equilibrium affinity of ihPDL1 or a-PD-L1 antibody (biolegend, cat 329702), 5 serial dilutions of ihPDL1 starting from 200 μg/mL, or 6 serial dilutions of α-PD-L1 antibody starting from 100 μg/mL were injected at a flow rate of 30 μL/min over the sensor chips coupled with PD-L1 protein. The data sets were analyzed using a model for 1:1 binding.

Assay [3] deals with T-cells from healthy PBMCs with allogeneic mature DCs. Type of assay: cell-based, human. The following applies: purified ihPDL1 at 0.01 μg/mL, 0.1 μg/mL, or 1 μg/mL.
For assay [4], the system named is K562/PD-L1, U251/PD-L1, H226/PD-L1 target cells. Kind of assay: ADCC assay (Jurkat effector cells). The class given is cell-based, human. The following applies: any of the PD-L1-expressed target cell lines. As for the experimental part:
ADCC assay: Purified ihPDL1 was analyzed with ADCC kit according to the manufacturer's instruction (Promega, Madison, Wis.).

The next assay addresses T4, PD-L1^+ tumor cells (Homo sapiens, UniProt Q9NZQ7).
T4 construct: endogenous in cells; host or cells: IFN-γ-stimulated U251 or H226
Type of assay: cell-based. The following applies: PD-L1-transduced 293T or K562, IFN-γ pre-stimulated H226 or U251.

Another assay has as its system PD-1+ CD8+ T cells. The following applies: purified iPDL1 in comparison to control IgG.
The target of assay [5] is T5, PD-L1 (Mus musculus, UniProt Q9EP73).
T5 construct: from tissue; host or cells: single-cell suspensions of treated and distant MC38 tumours from C57BL/6 mice
T5 sequence (Q9EP73 19-290): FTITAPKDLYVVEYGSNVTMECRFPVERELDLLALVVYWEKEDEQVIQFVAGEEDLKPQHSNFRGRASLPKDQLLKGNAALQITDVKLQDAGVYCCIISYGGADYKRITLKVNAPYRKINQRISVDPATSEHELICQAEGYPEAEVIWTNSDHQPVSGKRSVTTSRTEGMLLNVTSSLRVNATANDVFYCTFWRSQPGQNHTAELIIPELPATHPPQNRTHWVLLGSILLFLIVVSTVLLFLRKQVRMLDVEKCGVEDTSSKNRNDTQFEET
The class given is in vivo. The following applies: MC38, untreated distant tumors.

In assay [6] the target is T6, PD-L1 on MC38 tumor cells (Mus musculus, UniProt Q9EP73).
T6 construct: endogenous in cells; host or cells: MC38 (wild type, IFN-γ stimulated, or PD-L1 shRNA knock-down as negative control)
T6 sequence (Q9EP73 19-290): as above
The class given is cell-based.

The target in assay [7] is PD-L1 protein (Abcam, ab130039) (UniProt Q9EP73 19-238). Kind of assay: competitive ELISA: PD-L1-coated plate, displacement of mouse PD-1-biotin.
PD-L1 protein (Abcam, ab130039) (UniProt Q9EP73 19-238), sequence (Q9EP73 19-238 limits assumed): as the sequence (Q9EP73 19-238 limits assumed) above
[8] abbreviates: mutant peptide, read-out: IC50 (mutant).
Where [9] appears, read: wild type peptide, read-out: IC50 (Wild Type).

PD-L1 (Homo sapiens, UniProt Q9NZQ7), sequence (Q9NZQ7 19-290): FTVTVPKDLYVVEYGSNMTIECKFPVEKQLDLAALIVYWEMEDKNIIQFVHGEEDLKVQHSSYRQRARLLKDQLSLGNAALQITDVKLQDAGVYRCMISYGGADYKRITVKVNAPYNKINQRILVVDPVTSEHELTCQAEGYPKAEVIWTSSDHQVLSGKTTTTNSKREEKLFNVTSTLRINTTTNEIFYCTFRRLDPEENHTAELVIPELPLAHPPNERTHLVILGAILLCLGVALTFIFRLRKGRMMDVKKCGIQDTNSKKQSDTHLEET
T4 sequence (Q9NZQ7 19-290): as above
T3 sequence (Q9NZQ7 19-238 limits assumed): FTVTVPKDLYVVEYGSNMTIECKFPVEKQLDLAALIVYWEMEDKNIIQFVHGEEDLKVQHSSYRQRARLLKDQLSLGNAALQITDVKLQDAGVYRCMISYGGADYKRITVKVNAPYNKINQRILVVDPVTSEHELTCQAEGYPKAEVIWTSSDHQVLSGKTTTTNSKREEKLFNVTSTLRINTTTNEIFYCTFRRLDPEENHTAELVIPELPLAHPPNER
Description for PD-1+ CD8+ T cells: (FIG. 7I) PD-1+ CD8+ T cells isolated from VV-treated MC38 tumors were cocultured with MC38 cells in the presence of purified iPDL1 or IgG. IFN-γ+ frequencies of PD-1+ T cells were shown from one of two independent experiments.

With SIIVFNLV [Pep5, SIIVFNL(V/L)], the IC50 is 8 nM at H-2K^b (setting [8]) and 34 nM on H-2K^b (setting [9]).
On to (S/I)MTQHLEPI [Pep7], for which the IC50 on H-2D^b (setting [8]) is 78 nM; at H-2D^b (setting [9]), 29 nM.
Consider MAPIDHTAM [Pep3, MAPIDHT(A/T)M], for which the IC50 at H-2D^b (setting [8]) is 30 nM; on H-2D^b (setting [9]) it was 102 nM.
“anti-PD-L1 antibody control (Biolegend, 124301)” showed an IC50 in assay [1] of 4.53 nM.
SAIRSYQDV [Pep8, SAIRSYQ(D/Y)V]: the IC50 on H-2D^b (setting [8]) is 35 nM; at H-2D^b (setting [9]) it was 755 nM.
For MGGMNRRPI [Pep10, MG(G/V)MNRRPI], the IC50 was 77 nM on H-2D^b (setting [8]) and 841 nM at H-2D^b (setting [9]).
Turning to SSP(D/Y)SLHYL [Pep6], the IC50 is 211 nM on H-2D^b (setting [8]) and 685 nM at H-2D^b (setting [9]).
For the molecule FMACNLLLV [Pep11, FM(A/S)CNLLLV], the IC50 at H-2D^b (setting [8]) was 79 nM; on H-2D^b (setting [9]) it was 24 nM.
In the case of VSPVNDVDV [Pep9, VSPVND(V/L)DV], the values for the IC50 on H-2D^b (setting [8]) and at H-2D^b (setting [9]) were 44 nM and 18 nM, respectively.
On to AALLNSAGL [Pepl, AALLNSA(G/V)L], for which the IC50 on H-2D^b (setting [8]) is 3 nM; at H-2D^b (setting [9]) it was 52 nM.
On to ASMTN(R/M)ELM [Pep4], for which the IC50 at H-2D^b (setting [8]) was 2 nM; on H-2D^b (setting [9]) it was 3 nM.
As to AQL(P/A)NDVVL [Pep2], the IC50 was 9 nM at H-2D^b (setting [8]) and 100 nM at H-2D^b (setting [9]).
For the molecule “ihPDL1: soluble human PD-1 (extracellular) - IgG1 Fc fusion protein, human PD-L1 inhibitor, SEQ ID NO:52”, in the assay with PD-1/PD-L1 interaction, the “blocking the biotin-PD1 binding to PD-L1-coated wells” value is “equivalent activity to the commercial anti-PD-L1”. In the assay with PD-L1 [2], the “binding to PD-L1 (SPR)” value was “specifically bind to PD-L1”. Moreover, the “T cell activation (IFN-γ level) in MLR” value in assay [3] was “equivalent activity to the commercial anti-PD-L1”. In addition, the “concentration that significantly enhanced luc production in the Jurkat effector cells” value in assay [4] is on record as not above 10 ng/mL. In addition, the “binding of purified ihPDL1 to PD-L1^+ tumor cells” value in the assay with PD-L1^+ tumor cells was “bound to PD-L1^+ tumor cells”.

B1: iPDL1: murine soluble PD-1 extracellular domain fused with IgG1 Fc as a PD-L1 inhibitor, SEQ ID NO:2 (protein)
chain: MWVRQVPWSFTWAVLQLSWQSGWLLEVPNGPWRSLTFYPAWLTVSEGANATFTCSLSNWSEDLMLNWNRLSPSNQTEKQAAFCNGLSQPVQDARFQIIQLPNRHDFHMNILDTRRNDSGIYLCGAISLHPKAKIEESPGAELVVTERILETSTRYPSPSPKPEGRFQPRGPTIKPCPPCKCPAPNLLGGPSVFIFPPKIKDVLMISLSPIVTCVVVDVSEDDPDVQISWFVNNVEVHTAQTQTHREDYNSTLRVVSALPIQHQDWMSGKEFKCKVNNKDLPAPIERTISKPKGSVRAPQVYVLPPPEEEMTKKQVTLTCMVTDFMPEDIYVEWTNNGKTELNYKNTEPVLDSDGSYFMYSKLRVEKKNWVERNSYSCSVVHEGLHNHHTTKSFSRTPGK
modifications: Mouse
Turning to B1, in the assay on PD-1+ CD8+ T cells, the “IFN-γ+ frequency of PD-1+ CD8+ T cells” value was “higher IFN-γ+ frequency of PD-1+ CD8+ T cells”. Moreover, the “binding of secreted iPDL1 to PD-L1 on CD45− cells in distant tumors” value with PD-L1 [5] is “also bound to PD-L1 on CD45− cells in untreated, distant tumors”. Further, the “binding of purified protein to PD-L1+ tumor cells” value in [6] (50 μg/mL, MC38 vs PD-L1-knocked down MC38, anti-IgG Fc staining) is recorded as “able to bind to PD-L1+ tumor cells, but not to PD-L1-knocked down tumor cells”. The “binding of secreted iPDL1 to PD-L1 on tumor cells in cell culture” value in assay [6] (MC38 infected with VV-iPDL1/GM at MOI=0.5, anti-IgG Fc staining) was “bound to PD-L1 on the virus-infected (RFP positive) tumor cells, as well as uninfected (RFP negative) tumor cells”.

B2: iPDL1 (murine soluble PD-1 extracellular domain fused with IgG1 Fc) (Fc fusion)
chain: LEVPNGPWRSLTFYPAWLTVSEGANATFTCSLSNWSEDLMLNWNRLSPSNQTEKQAAFCNGLSQPVQDARFQIIQLPNRHDFHMNILDTRRNDSGIYLCGAISLHPKAKIEESPGAELVVTERILETSTRYPSPSPKPEGRFQPRGPTIKPCPPCKCPAPNLLGGPSVFIFPPKIKDVLMISLSPIVTCVVVDVSEDDPDVQISWFVNNVEVHTAQTQTHREDYNSTLRVVSALPIQHQDWMSGKEFKCKVNNKDLPAPIERTISKPKGSVRAPQVYVLPPPEEEMTKKQVTLTCMVTDFMPEDIYVEWTNNGKTELNYKNTEPVLDSDGSYFMYSKLRVEKKNWVERNSYSCSVVHEGLHNHHTTKSFSRTPGK
notes: detection used anti-IgG2a-Fc / anti-mouse IgG; also called soluble PD-1-Fc; soluble PD-1-IgG Fc
With B2, the IC50 in assay [7] is 5.63 nM.

The values are drawn from patent US20220064672A1, “ENGINEERED ONCOLYTIC VIRUSES EXPRESSING PD-L1 INHIBITORS AND USES THEREOF” (priority 2020, published 2022).
